Values of other authors, collected in patent US8158153B2, “Nanoparticulate bisphosphonate compositions” (Alkermes Pharma Ireland Limited, priority 2005, dated 2012).
Entries after “also recorded” stand apart in the source; their conditions may differ. Structures can show the parent of a compound that is named as a salt.

Assays:
[1] = 1% solution in distilled water
[2] = patients; clinical use

| Structure (SMILES) | pH of a 1% solution [1] | side effects / adverse effects [2] | solubility in organic solvents (organic solvents) | solubility in water |
| --- | --- | --- | --- | --- |
| NCCC(O)(P(=O)([O-])O)P(=O)([O-])O.[Na+].[Na+] [Pamidronate disodium, phosphonic acid (3-amino-1-hydroxypropylidene) bis-, disodium salt, pentahydrate] | approximately 8.3 | esophageal ulcers; also recorded: pain at the site of catheter insertion; also recorded: gastrointestinal pain |  |  |
| CCCCCN(C)CCC(O)(P(=O)([O-])O)P(=O)(O)O.O.[Na+] [Ibandronate sodium, 3-(N-methyl-N-pentyl) amino-1-hydroxypropane-1,1-diphosphonic acid, monosodium salt, monohydrate] |  | gastrointestinal irritation | practically insoluble | freely soluble |
| CC(O)(P(=O)([O-])[O-])P(=O)(O)O.[Na+].[Na+] [etidronate disodium, disodium salt of (1-hydroxyethylidene) diphosphonic acid] |  |  |  | highly soluble |
| O=P(O)(O)C(O)(Cc1cccnc1)P(=O)(O)O [Risedronate sodium, [1-hydroxy-2-(3-pyridinyl)ethylidene]bis[phosphonic acid] monosodium salt] |  | gastrointestinal irritation |  |  |
